Molecules are shown by their SMILES. Where two headings read alike, the source gives them in different places.

Common to all, as to format: cell-based
The test system of one experiment is IP-10. Briefly: IP-10 activity of TLR4 ligands, mouse.
In experiment [1] the target is T1, TLR4 (Mus musculus, UniProt Q9JHF9+Q9QUK6).
T1 sequence (Q9QUK6 26-835): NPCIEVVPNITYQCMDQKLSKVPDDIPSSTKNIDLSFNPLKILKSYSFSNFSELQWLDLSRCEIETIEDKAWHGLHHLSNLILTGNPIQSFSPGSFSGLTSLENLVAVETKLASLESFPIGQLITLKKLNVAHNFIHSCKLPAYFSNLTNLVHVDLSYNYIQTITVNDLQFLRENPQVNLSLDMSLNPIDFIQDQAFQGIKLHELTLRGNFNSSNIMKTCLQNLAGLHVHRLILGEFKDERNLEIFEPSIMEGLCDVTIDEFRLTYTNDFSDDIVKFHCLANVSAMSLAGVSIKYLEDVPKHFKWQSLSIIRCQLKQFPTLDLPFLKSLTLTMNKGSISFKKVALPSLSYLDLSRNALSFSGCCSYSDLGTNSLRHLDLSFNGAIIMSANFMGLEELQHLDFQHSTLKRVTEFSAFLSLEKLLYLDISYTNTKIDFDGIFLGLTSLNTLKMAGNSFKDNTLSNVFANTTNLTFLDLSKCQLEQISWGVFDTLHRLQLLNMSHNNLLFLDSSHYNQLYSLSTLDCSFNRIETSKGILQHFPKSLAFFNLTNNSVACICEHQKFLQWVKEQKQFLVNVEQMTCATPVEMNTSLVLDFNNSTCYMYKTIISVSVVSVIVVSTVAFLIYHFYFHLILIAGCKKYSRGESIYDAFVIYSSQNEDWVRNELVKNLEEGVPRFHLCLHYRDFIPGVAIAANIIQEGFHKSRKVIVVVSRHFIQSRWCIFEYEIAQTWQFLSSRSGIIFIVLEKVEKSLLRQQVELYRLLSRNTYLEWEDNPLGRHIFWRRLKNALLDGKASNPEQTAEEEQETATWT
T1 sequence (Q9JHF9 19-160): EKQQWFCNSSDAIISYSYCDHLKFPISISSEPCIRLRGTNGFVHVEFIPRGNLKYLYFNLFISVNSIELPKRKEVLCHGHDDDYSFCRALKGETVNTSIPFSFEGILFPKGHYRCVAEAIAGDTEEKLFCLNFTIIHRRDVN
Briefly: TLR4 activity, mouse.

For the next experiment, the system named is IL-8. Briefly: IL-8 activity of TLR4 ligands, human. More on the design: unit not given here.
Experiment [2] concerns the target TLR4 (Homo sapiens, UniProt O00206+Q9Y6Y9). Briefly: TLR4 activity, human.
The next experiment relates to IL-6. Briefly: IL-6 activity of TLR4 ligands, mouse. Also on record: unit not given here.
A further experiment has as its system TLR9 signaling. Briefly: CpG-DNA-induced TLR9 signaling-mediated inflammatory response in isolated Kupffer cells. The note with it: R848 0.5 μM for 16 hours, then CpG-DNA 5 μg/mL for 4 hours. On the procedure:
It was examined whether 1Z1 (FIG. 7) inhibits TLR9 signaling, which promotes liver diseases, including non-alcoholic steatohepatitis (NASH) and alcoholic liver disease (ALD). Isolated Kupffer cells were treated with 1Z1 (5 μM) or R848 (0.5 μM) for 16 hours followed by stimulation with CpG-DNA (TLR9 ligand; 5 μg/mL) for 4 hours and inflammatory cytokine expression was then measured. Pretreatment with […], 1Z1, and R848 inhibited production of IL-6, TNFα, IL-1β, CCL5, CXCL1, and CXCL2 in Kupffer cells following CpG-DNA treatment (FIG. 18).

Sequence of TLR4 (Homo sapiens, UniProt O00206+Q9Y6Y9) (O00206 24-839): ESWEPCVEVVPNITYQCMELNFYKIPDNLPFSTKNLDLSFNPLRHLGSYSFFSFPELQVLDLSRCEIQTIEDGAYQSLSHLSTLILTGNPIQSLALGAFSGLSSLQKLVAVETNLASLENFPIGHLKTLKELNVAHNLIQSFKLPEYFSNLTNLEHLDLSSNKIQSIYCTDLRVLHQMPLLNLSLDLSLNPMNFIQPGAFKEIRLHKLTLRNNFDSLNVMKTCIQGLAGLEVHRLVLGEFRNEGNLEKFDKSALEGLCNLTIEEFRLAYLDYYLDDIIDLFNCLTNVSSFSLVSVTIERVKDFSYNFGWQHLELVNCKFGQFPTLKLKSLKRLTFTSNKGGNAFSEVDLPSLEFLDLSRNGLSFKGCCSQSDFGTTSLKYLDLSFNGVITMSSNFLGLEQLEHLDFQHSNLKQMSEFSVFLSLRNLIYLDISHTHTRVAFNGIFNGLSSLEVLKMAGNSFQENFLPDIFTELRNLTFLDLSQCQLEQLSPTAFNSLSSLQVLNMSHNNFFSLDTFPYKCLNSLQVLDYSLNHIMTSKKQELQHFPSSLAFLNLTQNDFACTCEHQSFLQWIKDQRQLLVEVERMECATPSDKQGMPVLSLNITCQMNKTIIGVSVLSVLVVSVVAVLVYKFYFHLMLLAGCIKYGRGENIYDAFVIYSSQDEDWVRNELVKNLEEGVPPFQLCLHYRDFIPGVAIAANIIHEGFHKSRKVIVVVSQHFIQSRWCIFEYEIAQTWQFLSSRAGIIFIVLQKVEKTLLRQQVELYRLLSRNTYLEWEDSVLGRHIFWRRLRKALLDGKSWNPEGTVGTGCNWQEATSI
Sequence of TLR4 (Homo sapiens, UniProt O00206+Q9Y6Y9) (Q9Y6Y9 17-160 limits assumed): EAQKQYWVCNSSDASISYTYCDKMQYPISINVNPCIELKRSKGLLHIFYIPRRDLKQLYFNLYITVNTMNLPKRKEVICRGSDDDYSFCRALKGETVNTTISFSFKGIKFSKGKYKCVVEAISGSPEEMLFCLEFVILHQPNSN

Take `CCCCNC(=O)CSc1nc2c([nH]c3ccccc32)c(=O)n1-c1ccccc1` [Compound 23]: the “mouse IP-10” value with IP-10 is listed as 61. For the same compound, on TLR4 [1], the “mouse TLR4” value came out at 31. In the experiment with IL-8, the “human IL-8” value is on record as 29. In addition, the “human TLR4” value at TLR4 [2] is on record as 32. Further, in the experiment on IL-6, the “mouse IL-6” value was found to be 49.

Turning to `O=C(CSc1nc2c([nH]c3ccccc32)c(=O)n1-c1ccccc1)NC1CCNCC1` [Compound 34], the “mouse IP-10” value with IP-10 was below 1. The “mouse TLR4” value on TLR4 [1] (mouse) is given as below 1. Moreover, in the experiment on IL-8, the “human IL-8” value is 17. Also, the “human TLR4” value at TLR4 [2] (human) is below 1. The “mouse IL-6” value in the experiment with IL-6 is on record as below 1.

For `CN(C(=O)CSc1nc2c3ccccc3n(C)c2c(=O)n1-c1ccccc1)C1CCCCC1` [Compound 43], the “mouse IP-10” value with IP-10 is given as below 1. Also, the “mouse TLR4” value on TLR4 [1] (mouse) was found to be 1. For the same compound, in the experiment with IL-8, the “human IL-8” value worked out at 5. Moreover, the “human TLR4” value at TLR4 [2] (human) is given as below 1. Besides, in the experiment on IL-6, the “mouse IL-6” value is on record as below 1.

As for `COC(=O)CCCn1c2ccccc2c2nc(SCC(=O)NC3CCCCC3)n(-c3ccccc3)c(=O)c21` [Compound 44], in the experiment with IP-10, the “mouse IP-10” value amounted to 19. The “mouse TLR4” value at TLR4 [1] (mouse) was determined as 9. Also, in the experiment on IL-8, the “human IL-8” value came out at 124. In addition, at TLR4 [2] (human), the “human TLR4” value worked out at 19. Besides, the “mouse IL-6” value in the experiment on IL-6 was 4.

Consider `CCOCc1nc2c(N)nc3ccccc3c2n1CC(C)(C)O` [Compound R848], for which the “production of IL-6, TNFα, IL-1β, CCL5, CXCL1, and CXCL2 following CpG-DNA treatment” value with TLR9 signaling is recorded as “inhibited”.

Source of the values: US20180110784A1, “SYNTHETIC TLR4 AND TLR7 LIGANDS TO PREVENT, INHIBIT OR TREAT LIVER DISEASE” (The Regents of the University of California, priority 2015, published 2018).
